ChEMBL document CHEMBL1158208, “Raocyclamides A and B, Novel Cyclic Hexapeptides Isolated from the Cyanobacterium Oscillatoria raoi” (J Nat Prod, 1996)

Legend:
[1] = Inhibition of Paracentrotus lividus embryo division at 250 ug/mL
[2] = Inhibition of Paracentrotus lividus embryo division

Structure (SMILES) | Activity [1] | ED100 [2] [µg/mL]
CC[C@H](C)[C@H]1NC(=O)c2coc(n2)[C@H](C)NC(=O)[C@@H](CO)NC(=O)[C@@H](Cc2ccccc2)NC(=O)c2csc1n2 [RAOCYCLAMIDE B] | Not Active | –
CC[C@H](C)[C@H]1NC(=O)c2coc(n2)[C@H](C)NC(=O)[C@H]2COC(=N2)[C@@H](Cc2ccccc2)NC(=O)c2csc1n2 [RAOCYCLAMIDE A] | – | 30
